Measurements: US11505543B2, “4-oxo-3,4-dihydroquinazoline compounds as inhibitors of human immunodeficiency virus replication” (VIIV HEALTHCARE UK (NO.5) LIMITED, priority 2018, dated 2022)

What was measured:
[1] = system: recombinant NL4-3 virus (nef section replaced with Renilla luciferase gene) in MT-2 cells; test: HIV cell culture assay (antiviral activity, luciferase readout); format: cell-based; settings: Renilla, NL43, MT-2 cells infected for 4-5 days with recombinant NL4-3 Renilla luciferase virus, serial dilutions of compound
Procedure, shortened: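 Test compound in serial dilution was present while MT-2 cells were infected for 4–5 days with recombinant NL4-3 virus made in 293T cells. Antiviral activity was quantified as Renilla luciferase activity, read with a live-cell substrate. EC50 came from the median-effect equation.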

[2] = Compound cytotoxicity, XTT-based colorimetric assay; format: cell-based; settings: human, uninfected MT2 cells, day 4, XTT
Procedure, shortened: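 Run under the antiviral-assay protocol but without virus. Viability was read on day 4 and CC50 values were derived from the readout.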

Row | SMILES | EC50 [1] [nM] | CC50 at 4 day [2] [nM]
1 | Cn1nc(NS(C)(=O)=O)c2c(Cl)ccc(-n3c([C@H](Cc4cc(F)cc(F)c4)NC(=O)Cn4nc(C(F)F)c5c4C(F)(F)[C@@H]4C[C@H]54)nc4cc(-c5cc[nH]n5)ccc4c3=O)c21 (atropisomer, axis not shown; (aR)) [Example 78, N-((S)-1-(3-(4-chloro-1-methyl-3-(methylsulfonamido)-1H-indazol-7-yl)-4-oxo-7-(1H-pyrazol-3-yl)-3,4-dihydroquinazolin-2-yl)-2-(3,5-difluorophenyl)ethyl)-2-((3bS,4aR)-3-(difluoromethyl)-5,5-difluoro-3b,4,4a,5-tetrahydro-1H-cyclopropa[3,4]cyclopenta[1,2-c]pyrazol-1-yl)acetamide] | 0.12 | > 1000
2 | Cn1nc(NS(C)(=O)=O)c2c(Cl)ccc(-n3c([C@H](Cc4cc(F)cc(F)c4)NC(=O)Cn4nc(C(F)F)c5c4C(F)(F)[C@@H]4C[C@H]54)nc4cc(-c5ccc6c7c(ccnc57)CCO6)ccc4c3=O)c21 (atropisomer, axis not shown; (aR)) [Example 82, N-((S)-1-(3-(4-chloro-1-methyl-3-(methylsulfonamido)-1H-indazol-7-yl)-7-(2,3-dihydropyrano[4,3,2-de]quinolin-7-yl)-4-oxo-3,4-dihydroquinazolin-2-yl)-2-(3,5-difluorophenyl)ethyl)-2-((3bS,4aR)-3-(difluoromethyl)-5,5-difluoro-3b,4,4a,5-tetrahydro-1H-cyclopropa[3,4]cyclopenta[1,2-c]pyrazol-1-yl)acetamide] | 7 | > 1000
3 | Cn1nc(NS(C)(=O)=O)c2c(Cl)ccc(-n3c([C@H](Cc4cc(F)cc(F)c4)NC(=O)Cn4nc(C(F)F)c5c4C(F)(F)[C@@H]4C[C@H]54)nc4cc(-c5cncnc5)ccc4c3=O)c21 (atropisomer, axis not shown; (aR)) [Example 84, N-((S)-1-(3-(4-chloro-1-methyl-3-(methylsulfonamido)-1H-indazol-7-yl)-4-oxo-7-(pyrimidin-5-yl)-3,4-dihydroquinazolin-2-yl)-2-(3,5-difluorophenyl)ethyl)-2-((3bS,4aR)-3-(difluoromethyl)-5,5-difluoro-3b,4,4a,5-tetrahydro-1H-cyclopropa[3,4]cyclopenta[1,2-c]pyrazol-1-yl)acetamide] | 0.068 | > 1000
4 | COc1cccc(OC)c1-c1ccc2c(=O)n(-c3ccc(Cl)c4c(NS(C)(=O)=O)nn(C)c34)c([C@H](Cc3cc(F)cc(F)c3)NC(=O)Cn3nc(C(F)F)c4c3C(F)(F)[C@@H]3C[C@H]43)nc2c1 (atropisomer, axis not shown; (aR)) [Example 86, N-((S)-1-(3-(4-chloro-1-methyl-3-(methylsulfonamido)-1H-indazol-7-yl)-7-(2,6-dimethoxyphenyl)-4-oxo-3,4-dihydroquinazolin-2-yl)-2-(3,5-difluorophenyl)ethyl)-2-((3bS,4aR)-3-(difluoromethyl)-5,5-difluoro-3b,4,4a,5-tetrahydro-1H-cyclopropa[3,4]cyclopenta[1,2-c]pyrazol-1-yl)acetamide] | 0.5 | > 1000
5 | Cn1nc(NS(C)(=O)=O)c2c(Cl)ccc(-n3c([C@H](Cc4cc(F)cc(F)c4)NC(=O)Cn4nc(C(F)F)c5c4C(F)(F)[C@@H]4C[C@H]54)nc4cc(-c5ccccn5)ccc4c3=O)c21 (atropisomer, axis not shown; (aR)) [Example 87, N-((S)-1-(3-(4-chloro-1-methyl-3-(methylsulfonamido)-1H-indazol-7-yl)-4-oxo-7-(pyridin-2-yl)-3,4-dihydroquinazolin-2-yl)-2-(3,5-difluorophenyl)ethyl)-2-((3bS,4aR)-3-(difluoromethyl)-5,5-difluoro-3b,4,4a,5-tetrahydro-1H-cyclopropa[3,4]cyclopenta[1,2-c]pyrazol-1-yl)acetamide] | 0.09 | > 1000
6 | Cc1ccccc1-c1ccc2c(=O)n(-c3ccc(Cl)c4c(NS(C)(=O)=O)nn(C)c34)c([C@H](Cc3cc(F)cc(F)c3)NC(=O)Cn3nc(C(F)F)c4c3C(F)(F)[C@@H]3C[C@H]43)nc2c1 (atropisomer, axis not shown; (aR)) [Example 88, N-((S)-1-(3-(4-chloro-1-methyl-3-(methylsulfonamido)-1H-indazol-7-yl)-4-oxo-7-(o-tolyl)-3,4-dihydroquinazolin-2-yl)-2-(3,5-difluorophenyl)ethyl)-2-((3bS,4aR)-3-(difluoromethyl)-5,5-difluoro-3b,4,4a,5-tetrahydro-1H-cyclopropa[3,4]cyclopenta[1,2-c]pyrazol-1-yl)acetamide] | 0.73 | > 1000
7 | Cc1n[nH]c(C)c1-c1ccc2c(=O)n(-c3ccc(Cl)c4c(NS(C)(=O)=O)nn(C)c34)c([C@H](Cc3cc(F)cc(F)c3)NC(=O)Cn3nc(C(F)F)c4c3C(F)(F)[C@@H]3C[C@H]43)nc2c1 (atropisomer, axis not shown; (aR)) [Example 89, N-((S)-1-(3-(4-chloro-1-methyl-3-(methylsulfonamido)-1H-indazol-7-yl)-7-(3,5-dimethyl-1H-pyrazol-4-yl)-4-oxo-3,4-dihydroquinazolin-2-yl)-2-(3,5-difluorophenyl)ethyl)-2-((3bS,4aR)-3-(difluoromethyl)-5,5-difluoro-3b,4,4a,5-tetrahydro-1H-cyclopropa[3,4]cyclopenta[1,2-c]pyrazol-1-yl)acetamide] | 3.4 | > 1000
8 | Cc1cc(Cl)ccc1-c1ccc2c(=O)n(-c3ccc(Cl)c4c(NS(C)(=O)=O)nn(C)c34)c([C@H](Cc3cc(F)cc(F)c3)NC(=O)Cn3nc(C(F)F)c4c3C(F)(F)[C@@H]3C[C@H]43)nc2c1 (atropisomer, axis not shown; (aR)) [Example 90] | 5.7 | > 1000
9 | Cn1nc(NS(C)(=O)=O)c2c(Cl)ccc(-n3c([C@H](Cc4cc(F)cc(F)c4)NC(=O)Cn4nc(C(F)F)c5c4C(F)(F)[C@@H]4C[C@H]54)nc4cc(-c5ccc(S(=O)(=O)N6CCOCC6)cc5)ccc4c3=O)c21 (atropisomer, axis not shown; (aR)) [Example 91, N-((S)-1-(3-(4-chloro-1-methyl-3-(methylsulfonamido)-1H-indazol-7-yl)-7-(4-(morpholinosulfonyl)phenyl)-4-oxo-3,4-dihydroquinazolin-2-yl)-2-(3,5-difluorophenyl)ethyl)-2-((3bS,4aR)-3-(difluoromethyl)-5,5-difluoro-3b,4,4a,5-tetrahydro-1H-cyclopropa[3,4]cyclopenta[1,2-c]pyrazol-1-yl)acetamide] | 0.39 | > 1000
10 | Cc1noc(C)c1-c1ccc2c(=O)n(-c3ccc(Cl)c4c(NS(C)(=O)=O)nn(C)c34)c([C@H](Cc3cc(F)cc(F)c3)NC(=O)Cn3nc(C(F)F)c4c3C(F)(F)[C@@H]3C[C@H]43)nc2c1 (atropisomer, axis not shown; (aR)) [Example 94, N-((S)-1-(3-(4-chloro-1-methyl-3-(methylsulfonamido)-1H-indazol-7-yl)-7-(3,5-dimethylisoxazol-4-yl)-4-oxo-3,4-dihydroquinazolin-2-yl)-2-(3,5-difluorophenyl)ethyl)-2-((3bS,4aR)-3-(difluoromethyl)-5,5-difluoro-3b,4,4a,5-tetrahydro-1H-cyclopropa[3,4]cyclopenta[1,2-c]pyrazol-1-yl)acetamide] | 0.44 | > 1000
11 | Cn1nc(NS(C)(=O)=O)c2c(Cl)ccc(-n3c([C@H](Cc4cc(F)cc(F)c4)NC(=O)Cn4nc(C(F)F)c5c4C(F)(F)[C@@H]4C[C@H]54)nc4cc(-c5cnccc5F)ccc4c3=O)c21 (atropisomer, axis not shown; (aR)) [Example 96, N-((S)-1-(3-(4-chloro-1-methyl-3-(methylsulfonamido)-1H-indazol-7-yl)-7-(4-fluoropyridin-3-yl)-4-oxo-3,4-dihydroquinazolin-2-yl)-2-(3,5-difluorophenyl)ethyl)-2-((3bS,4aR)-3-(difluoromethyl)-5,5-difluoro-3b,4,4a,5-tetrahydro-1H-cyclopropa[3,4]cyclopenta[1,2-c]pyrazol-1-yl)acetamide] | 0.076 | > 1000
12 | Cn1nc(NS(C)(=O)=O)c2c(Cl)ccc(-n3c([C@H](Cc4cc(F)cc(F)c4)NC(=O)Cn4nc(C(F)F)c5c4C(F)(F)[C@@H]4C[C@H]54)nc4cc(-c5ccc(F)c(C#N)c5)ccc4c3=O)c21 (atropisomer, axis not shown; (aR)) [Example 97, N-((S)-1-(3-(4-chloro-1-methyl-3-(methylsulfonamido)-1H-indazol-7-yl)-7-(3-cyano-4-fluorophenyl)-4-oxo-3,4-dihydroquinazolin-2-yl)-2-(3,5-difluorophenyl)ethyl)-2-((3bS,4aR)-3-(difluoromethyl)-5,5-difluoro-3b,4,4a,5-tetrahydro-1H-cyclopropa[3,4]cyclopenta[1,2-c]pyrazol-1-yl)acetamide] | 0.4 | > 1000
13 | Cn1nc(NS(C)(=O)=O)c2c(Cl)ccc(-n3c([C@H](Cc4cc(F)cc(F)c4)NC(=O)Cn4nc(C(F)F)c5c4C(F)(F)[C@@H]4C[C@H]54)nc4cc(-c5ccc(F)c(CO)c5)ccc4c3=O)c21 (atropisomer, axis not shown; (aR)) [Example 98, N-((S)-1-(3-(4-chloro-1-methyl-3-(methylsulfonamido)-1H-indazol-7-yl)-7-(4-fluoro-3-(hydroxymethyl)phenyl)-4-oxo-3,4-dihydroquinazolin-2-yl)-2-(3,5-difluorophenyl)ethyl)-2-((3bS,4aR)-3-(difluoromethyl)-5,5-difluoro-3b,4,4a,5-tetrahydro-1H-cyclopropa[3,4]cyclopenta[1,2-c]pyrazol-1-yl)acetamide] | 0.39 | > 1000
